Experimental data from US9765092B2, “Tricyclic piperidine compounds” (ACTELION PHARMACEUTICALS LTD, priority 2013, dated 2017).
Blank lines part the entries; values can stand above or below the compound they belong to.

Experiments:
[1] = system: 5HT; conditions: mice; cited from earlier work
[2] = system: 5HT; conditions: in vivo; cited from earlier work
[3] = system: 5HT / 5HIAA; conditions: phase IIA study, qid; cited from earlier work
[4] = system: 5HT; conditions: 200 mg/kg i.p. qid for 3 days; cited from earlier work
[5] = system: cholangiocarcinoma; conditions: xenograft model of cholangiocarcinoma; cited from earlier work
[6] = molecular target: human TPH1 (Homo sapiens (Human), UniProt P17752); test: Biochemical in vitro assay using fluorescence readout (TPH1 inhibition)
[7] = full length human TPH1, 40 μM L-tryptophan, 15° C., 60 minutes, fluorescence at 540 nm, mean if determined several times
[8] = human TPH1, fluorescence readout

human TPH1, sequence (P17752 whole entry): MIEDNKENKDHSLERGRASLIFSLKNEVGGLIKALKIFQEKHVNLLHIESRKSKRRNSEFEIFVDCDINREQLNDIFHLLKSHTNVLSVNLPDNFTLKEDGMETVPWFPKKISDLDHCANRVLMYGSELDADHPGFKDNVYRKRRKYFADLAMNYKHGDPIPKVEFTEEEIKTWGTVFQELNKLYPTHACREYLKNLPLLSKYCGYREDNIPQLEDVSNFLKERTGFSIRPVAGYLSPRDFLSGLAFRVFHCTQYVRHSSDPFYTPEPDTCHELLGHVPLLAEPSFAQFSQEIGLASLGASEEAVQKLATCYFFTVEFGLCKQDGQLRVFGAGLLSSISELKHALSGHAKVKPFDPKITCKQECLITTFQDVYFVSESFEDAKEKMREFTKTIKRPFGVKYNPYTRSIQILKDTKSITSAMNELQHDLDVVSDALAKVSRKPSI

SMILES: Nc1nc(OC(c2ccc(-c3cccc(F)c3)cc2)C(F)(F)F)cc(-c2ccc(C[C@H](N)C(=O)O)cc2)n1 (stereo partly drawn) [LP533401]
brain 5HT concentrations [1]: without effecting brain concentrations | gut 5HT [1]: lower gut 5HT

SMILES: COc1cccc(-c2ccc([C@@H](Oc3cc(-c4ccc(C[C@H](N)C(=O)O)cc4)nc(N)n3)C(F)(F)F)cc2)c1 [LX1031, (S)-2-Amino-3-(4-{2-amino-6-[(R)-2,2,2-trifluoro-1-(3′-methoxy-biphenyl-4-yl)-ethoxy]-pyrimidin-4-yl}-phenyl)-propionic acid]
5HT in the colon [2]: only a minor reduction | 5HT in the jejunum [2]: lowers 5HT in the jejunum | brain 5HT [2]: no effect on brain 5HT | blood 5HT [3]: did not affect blood 5HT | urinary 5HIAA reduction [3]: up to 30%

SMILES: N[C@@H](Cc1ccc(Cl)cc1)C(=O)O (racemic) [PCA, p-chlorophenylalanine]
5HT in the brain [4]: ~20 % original | 5HT in the gut [4]: ~50 % original | tumor volume [5]: dramatic reduction in tumor volume

IC50 [6, 7]: 65 nM
SMILES: Cc1nn2c3c(nc2s1)CCN(C(=O)COc1ccc(N2CCOCC2)nc1Cl)C3c1nc(C(=O)O)cs1 (stereo not drawn) [Example 1.41.1, 2-(6-(2-((2-chloro-6-morpholinopyridin-3-yl)oxy)acetyl)-2-methyl-5,6,7,8-tetrahydro-[1,3,4]thiadiazolo[2′,3′:2,3]imidazo[4,5-c]pyridin-5-yl)thiazole-4-carboxylic acid]

IC50 [6, 8]: 4 nM
SMILES: Cc1nn2c3c(nc2s1)CCN(C(=O)COc1cc(F)c(N2CCOCC2)nc1Cl)C3c1ncc(C2CC2)cc1F (stereo not drawn) [Example 1.14.9, 2-((2-chloro-5-fluoro-6-morpholinopyridin-3-yl)oxy)-1-(5-(5-cyclopropyl-3-fluoropyridin-2-yl)-2-methyl-7,8-dihydro-[1,3,4]thiadiazolo[2′,3′:2,3]imidazo[4,5-c]pyridin-6(5H)-yl)ethanone]

IC50 [6, 8]: 51 nM
SMILES: Cc1nn2c3c(nc2s1)CCN(C(=O)COc1ccc(C2(N(C)C)CC2)nc1Cl)C3c1ccc(Cl)cc1F (stereo not drawn) [Example 1.4.44, 1-(5-(4-chloro-2-fluorophenyl)-2-methyl-7,8-dihydro-[1,3,4]thiadiazolo[2′,3′:2,3]imidazo[4,5-c]pyridin-6(5H)-yl)-2-((2-chloro-6-(1-(dimethylamino)cyclopropyl)pyridin-3-yl)oxy)ethanone]

SMILES: CNC(=O)c1ccc(OCC(=O)N2CCc3nc4sc(C)nn4c3C2c2ncc(C(=O)N(C)C)s2)c(Cl)n1 (stereo not drawn) [Example 1.37.1, 2-(6-(2-((2-Chloro-6-(methylcarbamoyl)pyridin-3-yl)oxy)acetyl)-2-methyl-5,6,7,8-tetra-hydro-[1,3,4]thiadiazolo[2′,3′:2,3]imidazo[4,5-c]pyridin-5-yl)-N,N-dimethylthiazole-5-carboxamide]
IC50 [6, 7]: 176 nM

SMILES: Cc1nn2c3c(nc2s1)CCN(C(=O)COc1ccc(C(F)(F)F)nc1Cl)C3c1ncc(C2CC2)cc1F (stereo not drawn) [Example 1.14.3, 2-((2-chloro-6-(trifluoromethyl)pyridin-3-yl)oxy)-1-(5-(5-cyclopropyl-3-fluoropyridin-2-yl)-2-methyl-7,8-dihydro-[1,3,4]thiadiazolo[2′,3′:2,3]imidazo[4,5-c]pyridin-6(5H)-yl)ethanone]
IC50 [6, 8]: 17 nM

SMILES: CCc1nc(NS(C)(=O)=O)ccc1OCC(=O)N1CCc2nc3sc(C)nn3c2C1c1ccc(Cl)cc1F (stereo not drawn) [Example 1.4.51, N-(5-(2-(5-(4-chloro-2-fluorophenyl)-2-methyl-7,8-dihydro-[1,3,4]thiadiazolo[2′,3′:2,3]imidazo[4,5-c]-pyridin-6(5H)-yl)-2-oxoethoxy)-6-ethylpyridin-2-yl)methanesulfonamide]
IC50 [6, 8]: 12 nM

IC50 [6, 8]: 28 nM
SMILES: O=C(COc1cccc(C(F)(F)F)c1Cl)N1CCc2nc3sccn3c2C1c1nc2ccccc2s1 (stereo not drawn) [Example 6.12.5, 1-(5-(benzo[d]thiazol-2-yl)-7,8-dihydrothiazolo-[2′,3′:2,3]imidazo[4,5-c]pyridin-6(5H)-yl)-2-(2-chloro-3-(trifluoromethyl)phenoxy)ethanone]

SMILES: CNS(=O)(=O)c1ccc(OCC(=O)N2CCc3nc4sc(C)nn4c3C2c2ccc(Cl)cc2F)c(Cl)n1 (stereo not drawn) [Example 1.4.60, 6-chloro-5-(2-(5-(4-chloro-2-fluorophenyl)-2-methyl-7,8-dihydro-[1,3,4]thiadiazolo[2′,3′:2,3]imidazo[4,5-c]pyridin-6(5H)-yl)-2-oxoethoxy)-N-methylpyridine-2-sulfonamide]
IC50 [6, 8]: 36 nM

SMILES: CCc1nc(NS(C)(=O)=O)ccc1OCC(=O)N1CCc2nc3sc(C(F)(F)F)nn3c2C1c1ccc(Cl)cc1F (stereo not drawn) [Example 5.1.2, N-(5-(2-(5-(4-chloro-2-fluorophenyl)-2-(trifluoromethyl)-7,8-dihydro-[1,3,4]thiadiazolo[2′,3′:2,3]imidazo[4,5-c]pyridin-6(5H)-yl)-2-oxoethoxy)-6-ethylpyridin-2-yl)methanesulfonamide]
IC50 [6, 8]: 32 nM

SMILES: CCn1nc(C(=O)OC)cc1OCC(=O)N1CCc2nc3sc(C)nn3c2C1c1ccc(Cl)cc1F (stereo not drawn) [Example 1.4.31, Methyl 5-(2-(5-(4-chloro-2-fluorophenyl)-2-methyl-7,8-dihydro-[1,3,4]thiadiazolo[2′,3′:2,3]imidazo[4,5-c]pyridin-6(5H)-yl)-2-oxoethoxy)-1-ethyl-1H-pyrazole-3-carboxylate]
IC50 [6, 8]: 40 nM

SMILES: Cc1nn2c3c(nc2s1)CCN(C(=O)COc1ccc(C(=O)NC2CC2)nc1Cl)C3c1ccc(OCCO)cc1F (stereo not drawn) [Example 1.84.1, 6-chloro-N-cyclopropyl-5-(2-(5-(2-fluoro-4-(2-hydroxyethoxy)phenyl)-2-methyl-7,8-dihydro-[1,3,4]thiadiazolo[2′,3′:2,3]imidazo[4,5-c]pyridin-6(5H)-yl)-2-oxoethoxy)picolinamide]
IC50 [6, 7]: 14 nM
